Assay results published in patent publication US12201690B2, “Formulations/compositions comprising ibrutinib” (Janssen Pharmaceutica NV, priority 2018, dated 2025).

Columns and labels:
[1] = 1M ASAP (Accelerated Stability Assessment Program) stability study; assay type: physicochemical; settings: samples stored for 1 month at 60° C.
Method: The new 25 concepts were screened in a 1M ASAP (Accelerated Stability Assessment Program) stability study (5, 40 and 60° C. storage conditions), in a 6M lab stability study and in PET tests.
The Results of the 6-Month (6M) Lab Stability

[2] = Microscope search for new needle-shaped (co-)crystals in stored/stressed suspensions; assay type: physicochemical; settings: benzyl alcohol as preservative
Source text: As consequence of the increased paraben concentration, a crystallization issue has been observed with the suspension Composition 2 after a few months in stability at different storage conditions. […] By IR, Raman and MS analysis, the new needle crystals are characterized as potentially being co-crystals of the API and Parabens.
Between the acceptable concepts 13 to 20, after 6M storage in cyclic conditions, only in the concept containing benzoic acid as an incipient was new crystallization observed. The other samples were stable. • All concepts were physically stressed by rolling.
All suspension concepts were rolled into a glass vial, closed with a child resistant stopper, at room temperature, horizontally, at a speed of 25 rpm, for 1M. […] Between these concepts, only concepts 18, 19 and 20 were stable.
Some concepts were spiked to try to induce a rapid co-crystallization. Concepts containing Methyl and Ethyl paraben, were spiked with few granules of powder of co-crystals of API/Methyl Paraben and API/Et Paraben.

Compound | reduction in preservative assay [1] | (co-)crystallization [2]
OCc1ccccc1 [benzyl alcohol] | 1% | not observed
O=C(O)c1ccccc1 [benzoic acid] | about 5% | 
C/C=C/C=C/C(=O)O [Sorbic acid] | about 15% | 
